Measurements published in patent US11053204B2, “Pyrimidinyloxy benzene derivatives as herbicides” (FMC Corporation, priority 2015, dated 2021).

Columns and labels:
Type in all cases: in vivo
[1] = test system: barnyardgrass (Echinochloa crus-galli); assay: Test A preemergence, visual injury rating; conditions: Echinochloa crus-galli, pre-emergence, 240 h, 0 to 100 scale (0 no effect, 100 complete control), read-out: Barnyardgrass plant response rating
Method in brief: (§1)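 Visual injury scored 0–100 (100 = complete control) against untreated controls about 10 days after treatment in a greenhouse. Test chemicals, formulated with surfactant in non-phytotoxic solvent, were sprayed on soil preemergence or on 2-10 cm, one- to two-leaf plants postemergence.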

kochia (Kochia scoparia) [2] = assay: Test A preemergence, visual injury rating; conditions: Bassia scoparia, pre-emergence, 240 h, 0 to 100 scale (0 no effect, 100 complete control), read-out: Kochia plant response rating
Method in brief: as §1

[3] = test system: giant foxtail (Setaria faberii); assay: Test A preemergence, visual injury rating; conditions: Setaria faberi, pre-emergence, 240 h, 0 to 100 scale (0 no effect, 100 complete control), read-out: Foxtail, Giant plant response rating
Method in brief: as §1

[4] = test system: ragweed (common ragweed, Ambrosia elatior); assay: Test A preemergence, visual injury rating; conditions: Ambrosia artemisiifolia, pre-emergence, 240 h, 0 to 100 scale (0 no effect, 100 complete control), read-out: Ragweed plant response rating
Method in brief: as §1

[5] = test system: pigweed (Amaranthus retroflexus); assay: Test A preemergence, visual injury rating; conditions: Amaranthus retroflexus, pre-emergence, 240 h, 0 to 100 scale (0 no effect, 100 complete control), read-out: Pigweed plant response rating
Method in brief: as §1

[6] = test system: Italian ryegrass (Lolium multiflorum); assay: Test A preemergence, visual injury rating; conditions: Lolium multiflorum, pre-emergence, 240 h, 0 to 100 scale (0 no effect, 100 complete control), read-out: Ryegrass, Italian plant response rating
Method in brief: as §1

[7] = test system: chickweed (common chickweed, Stellaria media); assay: Test C postemergence, plant response rating; conditions: Stellaria media, post-emergence
Method in brief: (§2)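 Both timings shared one formulation, a non-phytotoxic solvent mixture with surfactant, and a greenhouse period of 13 to 15 d. Preemergence used seeded loam/sand or silt loam soil, postemergence used 2 to 18 cm plants; visual ratings ran from 0 (no effect) to 100 (complete control).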

kochia (Kochia scoparia) [8] = assay: Test C postemergence, plant response rating; conditions: Bassia scoparia, post-emergence
Method in brief: as §2

[9] = test system: ragweed (common ragweed, Ambrosia elatior); assay: Test C postemergence, plant response rating; conditions: Ambrosia artemisiifolia, post-emergence
Method in brief: as §2

[10] = test system: galium (catchweed bedstraw, Galium aparine); assay: Test C postemergence, plant response rating; conditions: Galium, post-emergence
Method in brief: as §2

[11] = test system: ryegrass, Italian (Italian ryegrass, Lolium multiflorum); assay: Test C postemergence, plant response rating; conditions: Lolium multiflorum, post-emergence
Method in brief: as §2

corn (Zea mays) = assay: Test C postemergence, plant response rating; conditions: Zea mays, post-emergence
Method in brief: as §2

[12] = test system: waterhemp (common waterhemp, Amaranthus rudis); assay: Test C postemergence, plant response rating; conditions: for Plant response rating, Waterhemp: scale 0 to 100; for Waterhemp plant response rating: scale 0 to 100 (0 no effect, 100 complete control)
Method in brief: as §2

[13] = test system: crabgrass, large (large crabgrass, Digitaria sanguinalis); assay: Test C postemergence, plant response rating; conditions: Digitaria sanguinalis, post-emergence
Method in brief: as §2

[14] = test system: oat, wild (wild oat Avena fatua); assay: Test C postemergence, plant response rating; conditions: Avena fatua, post-emergence
Method in brief: as §2

[15] = test system: lambsquarters (Chenopodium album); assay: Test C postemergence, plant response rating; conditions: Chenopodium album, post-emergence
Method in brief: as §2

soybean (Glycine max) = assay: Test C postemergence, plant response rating; conditions: Glycine max, post-emergence
Method in brief: as §2

[16] = test system: nutsedge, yellow (yellow nutsedge, Cyperus esculentus); assay: Test C postemergence, plant response rating; conditions: Cyperus, post-emergence
Method in brief: as §2

[17] = 62 g ai/ha, scale 0 to 100 (0 no effect, 100 complete control)
[18] = 125 g ai/ha, scale 0 to 100 (0 no effect, 100 complete control)

In the case of O=C(OCCC(F)(F)F)c1c(Br)cccc1Oc1ncc(Cl)cn1 [Compound 26, 3,3,3-trifluoropropyl 2-bromo-6-[(5-chloro-2-pyrimidinyl)oxy]benzoate], the pest or weed control at 125 g/ha ([1]; 125 g ai/ha) is reported as 100%, the pest or weed control at 500 g/ha ([1]; 500 g ai/ha) is reported as 100% and the pest or weed control at 125 g/ha (kochia (Kochia scoparia) [2]; 125 g ai/ha) is reported as 100%. It also gave a pest or weed control at 500 g/ha (kochia (Kochia scoparia) [2]; 500 g ai/ha) of 100%, a pest or weed control at 125 g/ha ([3]; 125 g ai/ha) of 100% and a pest or weed control at 500 g/ha ([3]; 500 g ai/ha) of 100%. The pest or weed control at 125 g/ha ([4]; 125 g ai/ha) was 20%, the pest or weed control at 500 g/ha ([4]; 500 g ai/ha) was 20% and the pest or weed control at 125 g/ha ([5]; 125 g ai/ha) was 100%. The pest or weed control at 500 g/ha ([5]; 500 g ai/ha) was 100%, the pest or weed control at 125 g/ha ([6]; 125 g ai/ha) was 70% and the pest or weed control at 500 g/ha ([6]; 500 g ai/ha) was 100%. For the same compound, the pest or weed control at 16 g/ha ([7]; 16 g ai/ha, scale 0 to 100) was 55%, the pest or weed control at 31 g/ha ([7]; 31 g ai/ha, scale 0 to 100) was 80% and the pest or weed control at 62 g/ha [7, 17] was 85%. The pest or weed control at 125 g/ha [7, 18] was 98%, the pest or weed control at 16 g/ha (kochia (Kochia scoparia) [8]; 16 g ai/ha, scale 0 to 100) was 90% and the pest or weed control at 31 g/ha (kochia (Kochia scoparia) [8]; 31 g ai/ha, scale 0 to 100) was 90%. For the same compound, the pest or weed control at 62 g/ha (kochia (Kochia scoparia) [8]; [17]) was 90%, the pest or weed control at 125 g/ha (kochia (Kochia scoparia) [8]; [18]) was 95% and the pest or weed control at 16 g/ha ([9]; 16 g ai/ha, scale 0 to 100) was 40%. The pest or weed control at 31 g/ha ([9]; 31 g ai/ha, scale 0 to 100) was 55%, the pest or weed control at 62 g/ha [9, 17] was 55% and the pest or weed control at 125 g/ha [9, 18] was 90%. The pest or weed control at 16 g/ha ([10]; 16 g ai/ha, scale 0 to 100) was 55%, the pest or weed control at 31 g/ha ([10]; 31 g ai/ha, scale 0 to 100) was 80% and the pest or weed control at 62 g/ha [10, 17] was 95%. It also gave a pest or weed control at 125 g/ha [10, 18] of 95%, a pest or weed control at 16 g/ha ([11]; 16 g ai/ha, scale 0 to 100) of 5% and a pest or weed control at 31 g/ha ([11]; 31 g ai/ha, scale 0 to 100) of 5%. The pest or weed control at 62 g/ha [11, 17] was 10%, the pest or weed control at 125 g/ha [11, 18] was 10% and the Corn plant response rating (crop injury, 0 = no effect, 100 = complete kill) at 16 g/ha (corn (Zea mays); 16 g ai/ha, scale 0 to 100) was 20%. For the same compound, the Corn plant response rating (crop injury, 0 = no effect, 100 = complete kill) at 31 g/ha (corn (Zea mays); 31 g ai/ha, scale 0 to 100) was 25%, the plant injury at 62 g/ha (corn (Zea mays); [17]) was 20% and the plant injury at 125 g/ha (corn (Zea mays); [18]) was 25%. For the same compound, the “Plant response rating, Waterhemp” value ([12]; 16 g ai/ha) was 95, the “Plant response rating, Waterhemp” value ([12]; 31 g ai/ha) was 98 and the “Waterhemp plant response rating” value ([12]; 62 g ai/ha) was 98. The “Waterhemp plant response rating” value ([12]; 125 g ai/ha) was 100, the pest or weed control at 16 g/ha ([13]; 16 g ai/ha, scale 0 to 100) was 10% and the pest or weed control at 31 g/ha ([13]; 31 g ai/ha, scale 0 to 100) was 20%. It also gave a pest or weed control at 62 g/ha [13, 17] of 25%, a pest or weed control at 125 g/ha [13, 18] of 65% and a pest or weed control at 16 g/ha ([14]; 16 g ai/ha, scale 0 to 100) of 10%. The pest or weed control at 31 g/ha ([14]; 31 g ai/ha, scale 0 to 100) was 10%, the pest or weed control at 62 g/ha [14, 17] was 15% and the pest or weed control at 125 g/ha [14, 18] was 35%. For the same compound, the pest or weed control at 16 g/ha ([15]; 16 g ai/ha, scale 0 to 100) was 75%, the pest or weed control at 31 g/ha ([15]; 31 g ai/ha, scale 0 to 100) was 90% and the pest or weed control at 62 g/ha [15, 17] was 98%. For the same compound, the pest or weed control at 125 g/ha [15, 18] was 98%, the plant injury at 16 g/ha (soybean (Glycine max); 16 g ai/ha, scale 0 to 100) was 65% and the plant injury at 31 g/ha (soybean (Glycine max); 31 g ai/ha, scale 0 to 100) was 55%. The plant injury at 62 g/ha (soybean (Glycine max); [17]) was 65%, the plant injury at 125 g/ha (soybean (Glycine max); [18]) was 75% and the pest or weed control at 16 g/ha ([16]; 16 g ai/ha, scale 0 to 100) was 5%. It also gave a pest or weed control at 31 g/ha ([16]; 31 g ai/ha, scale 0 to 100) of 10%, a pest or weed control at 62 g/ha [16, 17] of 10% and a pest or weed control at 125 g/ha [16, 18] of 10%.
